Experimental data: patent publication US20130216615A1, “Pharmaceutical Compositions Containing Dimethyl Fumarate” (priority 2012, published 2013)
Where a name gives a salt, the structure may show the parent alone.

What was measured:
[1] = human, in vivo
Method: (§1) A randomized, double-blind, placebo-controlled study in healthy adult volunteers was conducted in which a total of 56 subjects were randomized to receive 4 days' treatment with DMF 240 mg BID, DMF 240 mg TID, DMF 360 mg BID or placebo, with aspirin 325 mg or matching aspirin placebo administered 30 minutes before each DMF or DMF placebo dose. An additional 8 patients were assigned to a modified dosing group receiving DMF 120 mg or placebo 6 times daily (3 doses at hourly intervals in the morning and a further 3 doses at hourly intervals in the evening). There were 6 subjects per group, except for the modified dosing regimen, where an additional 2 subjects were assigned to placebo.
(§2) Flushing severity was assessed by 2 validated subject-reported measures, the global Flushing Severity Scale (GFSS) and the Flushing Severity Scale (FSS), which are adapted from the flushing scale described in Norquist J M, et al. Curr Med Res Opin 23:1547-1560 (2007). Both of these measures rate flushing severity on a scale of 0-10, where 0=no flushing, 1-3=mild flushing, 4-6=moderate flushing, 7-9=severe flushing, and 10=extreme flushing. The GFSS is a visual-analogue scale measuring redness, warmth, tingling and itching of the skin experienced over the preceding 24 h. Subjects completed the GFSS immediately before the first dose of study drug (0 h) on days 1 to 4, again at 0 h on day 5 and once more at follow-up on day 11. On the FSS, subjects rated their overall flushing and 4 items describing specific flushing symptoms (redness, warmth, tingling, itching) at the time of administration of the questionnaire. The FSS scale was administered at 16 time points over 12 h (Hours 0, 0.5, 1, 1.5, 2, 2.5, 3, 4, 5, 6, 7, 8, 9, 10, 11, 12) on days 1 to 4 and once on day 5 (24 h after the first day 4 dose) to assess the quality and intensity of subject-reported flushing symptoms in real time. Subjects rated 5 items relating only to the period since they last answered the questionnaire and/or received study drug.

[2] = PK of DMF with or without aspirin in healthy adult volunteers, plasma MMF; format: in vivo, human; conditions: aspirin 325 mg 30 minutes before each DMF dose
Method: The concentration of MMF was determined by high pressure liquid chromatography with tandem mass spectrometry, using […] as the internal standard. Further pharmacokinetic parameters were derived by non-compartmental analysis

[3] = Laser Doppler perfusion of facial skin during flushing; format: in vivo, human; conditions: aspirin pretreatment before DMF
Method: Laser Doppler perfusion was used as an exploratory quantitative measure of facial skin perfusion during flushing. This technique uses non-invasive imaging of superficial tissue blood perfusion, recorded as Blood Perfusion Units on a relative units scale. Laser Doppler perfusion was measured at the same 16 timepoints as the FSS.

[4] = Subject-reported flushing severity (GFSS, FSS); conditions: 325 mg non-enteric coated aspirin 30 minutes prior to DMF dosing, healthy volunteer study
Method: as §1, §2

| flushing severity on the FSS [1] | mean GFSS score ([1]; 2 day) | effect of aspirin pretreatment on MMF concentration-time profiles [2] | magnitude of Doppler perfusion response [3] | SMILES | occurrence and severity of flushing [4] |
| --- | --- | --- | --- | --- | --- |
| mild to moderate | 1.5-3.5 |  |  | COC(=O)/C=C/C(=O)OC [DMF, dimethyl fumarate] |  |
|  |  | no apparent effect | decreased | CC(=O)Oc1ccccc1C(=O)O [aspirin] | reduce the occurrence and severity of flushing |
